The text below walks through data of the supplement of paper PMC10307832.

What all share (experiment): relative viability (nuclei count vs DMSO), 5 days (fraction); higher = more cells survive
Compound in the assay “XMD14-99 + Crizotinib”: CN1CCN(CC1)C2=CC(=C(C=C2)NC3=NC(=C(S3)C(=O)C4=C(C=CC=C4Cl)Cl)N)OC [XMD14-99] + C[C@@H](Oc1cc(-c2cnn(C3CCNCC3)c2)cnc1N)c1c(Cl)ccc(F)c1Cl [Crizotinib] (partner 1 µM)
The method, boiled down: (§1)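 Relative viability divides the nuclei count in treated wells by that in vehicle wells. Lung cancer cell lines were seeded in 1536-well plates, dosed by pin tool the next day, and fixed and stained after 5 days in one step with final 0.05% Triton X-100, 1% formaldehyde and 1 ug/ml Hoechst. Dosing was a single drug or a fixed anchor-drug dose plus five library-drug doses (not always all listed) in √10 steps, and values are medians of duplicate plates imaged at 4×.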

Compound in the assay “XMD14-99 + Bortezomib”: CN1CCN(CC1)C2=CC(=C(C=C2)NC3=NC(=C(S3)C(=O)C4=C(C=CC=C4Cl)Cl)N)OC [XMD14-99] + CC(C)C[C@H](NC(=O)[C@H](Cc1ccccc1)NC(=O)c1cnccn1)B(O)O [Bortezomib] (partner 0.002 µM)
The method, boiled down: as §1

Compound in the assay “AZD1208 + Bortezomib”: N[C@@H]1CCCN(c2c(/C=C3\SC(=O)NC3=O)cccc2-c2ccccc2)C1 [AZD1208] + CC(C)C[C@H](NC(=O)[C@H](Cc1ccccc1)NC(=O)c1cnccn1)B(O)O [Bortezomib] (partner 0.002 µM)
The method, boiled down: as §1

Compound in the assay “AZD1208 + AZD7762”: N[C@@H]1CCCN(c2c(/C=C3\SC(=O)NC3=O)cccc2-c2ccccc2)C1 [AZD1208] + NC(=O)Nc1cc(-c2cccc(F)c2)sc1C(=O)N[C@H]1CCCNC1 [AZD7762] (partner 0.2 µM)
In outline:
as §1

For the cell line PC-3 [JPC-3], the relative viability with XMD14-99 + Crizotinib (first compound 0.08 µM) is 1.05; in the assay with XMD14-99 + Crizotinib (first compound 0.8 µM) it was 0.955; with XMD14-99 + Crizotinib (first compound 2.53 µM), 0.916; with XMD14-99 + Crizotinib (first compound 8 µM), 0.781; with XMD14-99 + Bortezomib (first compound 0.08 µM), 0.901; with XMD14-99 + Bortezomib (first compound 0.8 µM), 0.832. For the same cell line, the relative viability amounted to 0.832 with XMD14-99 + Bortezomib (first compound 2.53 µM); 0.723 with XMD14-99 + Bortezomib (first compound 8 µM); 0.833 with AZD1208 + Bortezomib (first compound 0.08 µM); 0.972 in the assay with AZD1208 + Bortezomib (first compound 0.253 µM); 0.887 with AZD1208 + Bortezomib (first compound 0.8 µM); 0.927 in the assay with AZD1208 + Bortezomib (first compound 2.53 µM). For the same cell line, the relative viability came to 0.855 in the assay with AZD1208 + Bortezomib (first compound 8 µM); 1.03 in the assay with AZD1208 + AZD7762 (first compound 0.08 µM); 0.89 with AZD1208 + AZD7762 (first compound 0.253 µM); 0.692 with AZD1208 + AZD7762 (first compound 0.8 µM); 0.793 with AZD1208 + AZD7762 (first compound 2.53 µM); 0.823 with AZD1208 + AZD7762 (first compound 8 µM).
Regarding NCI-H1437, the relative viability worked out at 0.843 with XMD14-99 + Crizotinib (first compound 0.08 µM); 0.905 in the assay with XMD14-99 + Crizotinib (first compound 0.8 µM); 0.822 with XMD14-99 + Crizotinib (first compound 2.53 µM); 0.684 with XMD14-99 + Crizotinib (first compound 8 µM); 0.519 with XMD14-99 + Bortezomib (first compound 0.08 µM); 0.408 with XMD14-99 + Bortezomib (first compound 0.8 µM). Also, the relative viability was 0.323 with XMD14-99 + Bortezomib (first compound 2.53 µM); 0.287 in the assay with XMD14-99 + Bortezomib (first compound 8 µM); 0.542 with AZD1208 + Bortezomib (first compound 0.08 µM); 0.754 in the assay with AZD1208 + Bortezomib (first compound 0.253 µM); 0.584 in the assay with AZD1208 + Bortezomib (first compound 0.8 µM); 0.42 in the assay with AZD1208 + Bortezomib (first compound 2.53 µM). The relative viability with AZD1208 + Bortezomib (first compound 8 µM) is 0.444; with AZD1208 + AZD7762 (first compound 0.08 µM) it was 1.18; in the assay with AZD1208 + AZD7762 (first compound 0.253 µM), 1.13; with AZD1208 + AZD7762 (first compound 0.8 µM) it was 1.06; with AZD1208 + AZD7762 (first compound 2.53 µM), 1.09; with AZD1208 + AZD7762 (first compound 8 µM) it was 1.05.
For the cell line NCI-H1666, the relative viability with XMD14-99 + Crizotinib (first compound 0.08 µM) was determined as 0.926; with XMD14-99 + Crizotinib (first compound 0.8 µM) it was 0.899; with XMD14-99 + Crizotinib (first compound 2.53 µM), 0.779; in the assay with XMD14-99 + Crizotinib (first compound 8 µM), 0.575; with XMD14-99 + Bortezomib (first compound 0.08 µM), 0.872; with XMD14-99 + Bortezomib (first compound 0.8 µM) it was 0.782. The relative viability with XMD14-99 + Bortezomib (first compound 2.53 µM) was found to be 0.825; with XMD14-99 + Bortezomib (first compound 8 µM) it was 0.629; with AZD1208 + Bortezomib (first compound 0.08 µM), 0.828; with AZD1208 + Bortezomib (first compound 0.253 µM), 0.745; with AZD1208 + Bortezomib (first compound 0.8 µM) it was 0.783; with AZD1208 + Bortezomib (first compound 2.53 µM), 0.637. The relative viability with AZD1208 + Bortezomib (first compound 8 µM) came to 0.579; with AZD1208 + AZD7762 (first compound 0.08 µM), 0.953; with AZD1208 + AZD7762 (first compound 0.253 µM) it was 0.888; with AZD1208 + AZD7762 (first compound 0.8 µM), 0.762; in the assay with AZD1208 + AZD7762 (first compound 2.53 µM), 0.856; with AZD1208 + AZD7762 (first compound 8 µM), 0.937.
Regarding NCI-H1651, the relative viability stood at 0.869 in the assay with XMD14-99 + Crizotinib (first compound 0.08 µM); 0.799 with XMD14-99 + Crizotinib (first compound 0.8 µM); 0.934 in the assay with XMD14-99 + Crizotinib (first compound 2.53 µM); 0.825 in the assay with XMD14-99 + Crizotinib (first compound 8 µM); 0.964 with XMD14-99 + Bortezomib (first compound 0.08 µM); 0.938 with XMD14-99 + Bortezomib (first compound 0.8 µM). Also, the relative viability with XMD14-99 + Bortezomib (first compound 2.53 µM) is 0.981; with XMD14-99 + Bortezomib (first compound 8 µM), 0.811; with AZD1208 + Bortezomib (first compound 0.08 µM) it was 0.978; with AZD1208 + Bortezomib (first compound 0.253 µM), 0.925; in the assay with AZD1208 + Bortezomib (first compound 0.8 µM) it was 0.858; with AZD1208 + Bortezomib (first compound 2.53 µM), 0.96. Also, the relative viability with AZD1208 + Bortezomib (first compound 8 µM) turned out to be 0.816; in the assay with AZD1208 + AZD7762 (first compound 0.08 µM), 0.458; with AZD1208 + AZD7762 (first compound 0.253 µM), 0.54; in the assay with AZD1208 + AZD7762 (first compound 2.53 µM) it was 0.439; with AZD1208 + AZD7762 (first compound 8 µM), 0.472.
As for NCI-H1755, the relative viability was determined as 0.846 with XMD14-99 + Crizotinib (first compound 0.08 µM); 0.878 with XMD14-99 + Crizotinib (first compound 0.8 µM); 0.825 with XMD14-99 + Crizotinib (first compound 2.53 µM); 0.614 with XMD14-99 + Crizotinib (first compound 8 µM); 0.854 with XMD14-99 + Bortezomib (first compound 0.08 µM); 0.947 in the assay with XMD14-99 + Bortezomib (first compound 0.8 µM). Besides, the relative viability was found to be 0.859 with XMD14-99 + Bortezomib (first compound 2.53 µM); 0.795 in the assay with XMD14-99 + Bortezomib (first compound 8 µM); 0.97 with AZD1208 + Bortezomib (first compound 0.08 µM); 1.06 with AZD1208 + Bortezomib (first compound 0.253 µM); 0.96 with AZD1208 + Bortezomib (first compound 0.8 µM); 1.02 with AZD1208 + Bortezomib (first compound 2.53 µM). Also, the relative viability came to 0.904 with AZD1208 + Bortezomib (first compound 8 µM); 0.509 with AZD1208 + AZD7762 (first compound 0.08 µM); 0.577 with AZD1208 + AZD7762 (first compound 0.253 µM); 0.455 with AZD1208 + AZD7762 (first compound 0.8 µM); 0.446 in the assay with AZD1208 + AZD7762 (first compound 2.53 µM); 0.448 with AZD1208 + AZD7762 (first compound 8 µM).
With NCI-H727, the relative viability was found to be 0.889 with XMD14-99 + Crizotinib (first compound 0.08 µM); 0.704 with XMD14-99 + Crizotinib (first compound 0.8 µM); 0.561 with XMD14-99 + Crizotinib (first compound 2.53 µM); 0.381 in the assay with XMD14-99 + Crizotinib (first compound 8 µM); 0.895 with XMD14-99 + Bortezomib (first compound 0.08 µM); 0.827 with XMD14-99 + Bortezomib (first compound 0.8 µM). Moreover, the relative viability with XMD14-99 + Bortezomib (first compound 2.53 µM) was 0.625; in the assay with XMD14-99 + Bortezomib (first compound 8 µM) it was 0.575; with AZD1208 + Bortezomib (first compound 0.08 µM) it was 0.641; with AZD1208 + Bortezomib (first compound 0.253 µM), 0.895; with AZD1208 + Bortezomib (first compound 0.8 µM), 0.804; in the assay with AZD1208 + Bortezomib (first compound 2.53 µM), 0.882. In addition, the relative viability in the assay with AZD1208 + Bortezomib (first compound 8 µM) was found to be 0.697; with AZD1208 + AZD7762 (first compound 0.08 µM) it was 0.586; with AZD1208 + AZD7762 (first compound 0.253 µM) it was 0.708; with AZD1208 + AZD7762 (first compound 0.8 µM), 0.502; with AZD1208 + AZD7762 (first compound 2.53 µM) it was 0.441; in the assay with AZD1208 + AZD7762 (first compound 8 µM), 0.518.
Consider HARA, for which the relative viability with XMD14-99 + Crizotinib (first compound 0.08 µM) was determined as 0.994; with XMD14-99 + Crizotinib (first compound 0.8 µM), 0.938; with XMD14-99 + Crizotinib (first compound 2.53 µM), 0.864; with XMD14-99 + Crizotinib (first compound 8 µM), 0.646; with XMD14-99 + Bortezomib (first compound 0.08 µM), 1.15; with XMD14-99 + Bortezomib (first compound 0.8 µM), 1.14. Moreover, the relative viability was found to be 0.922 in the assay with XMD14-99 + Bortezomib (first compound 2.53 µM); 0.867 with XMD14-99 + Bortezomib (first compound 8 µM); 1.09 with AZD1208 + Bortezomib (first compound 0.08 µM); 1.12 in the assay with AZD1208 + Bortezomib (first compound 0.253 µM); 1.08 with AZD1208 + Bortezomib (first compound 0.8 µM); 1.18 with AZD1208 + Bortezomib (first compound 2.53 µM). Also, the relative viability amounted to 1.19 with AZD1208 + Bortezomib (first compound 8 µM); 0.36 with AZD1208 + AZD7762 (first compound 0.08 µM); 0.468 with AZD1208 + AZD7762 (first compound 0.253 µM); 0.373 with AZD1208 + AZD7762 (first compound 0.8 µM); 0.557 in the assay with AZD1208 + AZD7762 (first compound 2.53 µM); 0.44 in the assay with AZD1208 + AZD7762 (first compound 8 µM).
For NCI-H647, the relative viability with XMD14-99 + Crizotinib (first compound 0.08 µM) came to 0.948; with XMD14-99 + Crizotinib (first compound 0.8 µM) it was 0.928; in the assay with XMD14-99 + Crizotinib (first compound 2.53 µM), 1.01; in the assay with XMD14-99 + Crizotinib (first compound 8 µM), 0.741; in the assay with XMD14-99 + Bortezomib (first compound 0.08 µM), 0.914; in the assay with XMD14-99 + Bortezomib (first compound 0.8 µM), 1.04. In addition, the relative viability came out at 0.928 with XMD14-99 + Bortezomib (first compound 2.53 µM); 0.745 with XMD14-99 + Bortezomib (first compound 8 µM); 1.05 in the assay with AZD1208 + Bortezomib (first compound 0.08 µM); 1.12 with AZD1208 + Bortezomib (first compound 0.253 µM); 0.902 with AZD1208 + Bortezomib (first compound 0.8 µM); 0.774 with AZD1208 + Bortezomib (first compound 2.53 µM). In addition, the relative viability in the assay with AZD1208 + Bortezomib (first compound 8 µM) amounted to 0.774; with AZD1208 + AZD7762 (first compound 0.08 µM) it was 0.638; in the assay with AZD1208 + AZD7762 (first compound 0.253 µM) it was 0.547; with AZD1208 + AZD7762 (first compound 0.8 µM), 0.466; with AZD1208 + AZD7762 (first compound 2.53 µM), 0.378; with AZD1208 + AZD7762 (first compound 8 µM), 0.497.
